The values that follow come from patent US20250009885A1, “INJECTABLE PHARMACEUTICAL FORMULATIONS OF LEFAMULIN” (NABRIVA THERAPEUTICS GMBH, priority 2015, published 2025).

Holding throughout (type): physicochemical
Series [1] in a line: Solubility of BC-3781 acetate in various media. The text has this:
The solubility of BC-3781 acetate in various media is as follows: […]

Another series can be described thus: pKa value measured.
Series [2] in a line: Stability at physiological pH. The conditions noted are these: pH 6.8 to 7.4. The text has this: Reported local tolerability issues are often linked to insufficient solubity of the compound at physiological pH which, however, is not the case for BC-3781.

Broadly, the solubility is the dissolved amount per volume that the medium holds. High values mean much dissolved substance, low ones little dissolved substance. Consider `C=C[C@]1(C)C[C@@H](OC(=O)CS[C@@H]2CC[C@@H](N)C[C@H]2O)[C@]2(C)[C@H](C)CC[C@]3(CCC(=O)[C@H]32)[C@@H](C)[C@@H]1O` [BC-3781 acetate, 14-O-{[(1R, 2R, 4R)-4-amino-2-hydroxy-cyclohexylsulfanyl]-acetyl}-mutilin], for which the solubility in series [1] (aqueous buffer, pH 7.4 (300 mM phosphate buffer)) is at least 100 mg/mL; in series [1] (water), at least 100 mg/mL.

What is called pKa is the pH at which an ionisable group is half protonated. Lower therefore signals a group that gives up its proton readily. For `C=C[C@]1(C)C[C@@H](OC(=O)CS[C@@H]2CC[C@@H](N)C[C@H]2O)[C@]2(C)[C@H](C)CC[C@]3(CCC(=O)[C@H]32)[C@@H](C)[C@@H]1O` [BC-3781, 14-O-{[(1R, 2R, 4R)-4-amino-2-hydroxy-cyclohexylsulfanyl]-acetyl}-mutilin], the pKa in “pKa value measured” was 9.41. The “Stability at physiological pH” value in series [2] was “excellent stability”.
